Target: NR1/NR2B (Homo sapiens (Human), UniProt Q05586+Q13224)
Assay: Cell assay: FDSS Ca2+ influx inhibition in HEK293 cells expressing NR1/NR2B;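 also: Fluo-8 Ca2+ signal read on Hamamatsu FDSS 6000 after glutamate, glycine and Ca2+ challenge following 10 min compound preincubation, end/baseline fluorescence ratio compared with MK801 control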
[1] = Binned Activity, HEK293 cells expressing NR1/NR2B, Ca2+ influx, binned NR2B NAM IC50
[2] = NR2B NAM IC50, HEK293 cells expressing NR1/NR2B, Ca2+ influx

Sequence of NR1/NR2B (Q13224 27-1484, other chains not shown): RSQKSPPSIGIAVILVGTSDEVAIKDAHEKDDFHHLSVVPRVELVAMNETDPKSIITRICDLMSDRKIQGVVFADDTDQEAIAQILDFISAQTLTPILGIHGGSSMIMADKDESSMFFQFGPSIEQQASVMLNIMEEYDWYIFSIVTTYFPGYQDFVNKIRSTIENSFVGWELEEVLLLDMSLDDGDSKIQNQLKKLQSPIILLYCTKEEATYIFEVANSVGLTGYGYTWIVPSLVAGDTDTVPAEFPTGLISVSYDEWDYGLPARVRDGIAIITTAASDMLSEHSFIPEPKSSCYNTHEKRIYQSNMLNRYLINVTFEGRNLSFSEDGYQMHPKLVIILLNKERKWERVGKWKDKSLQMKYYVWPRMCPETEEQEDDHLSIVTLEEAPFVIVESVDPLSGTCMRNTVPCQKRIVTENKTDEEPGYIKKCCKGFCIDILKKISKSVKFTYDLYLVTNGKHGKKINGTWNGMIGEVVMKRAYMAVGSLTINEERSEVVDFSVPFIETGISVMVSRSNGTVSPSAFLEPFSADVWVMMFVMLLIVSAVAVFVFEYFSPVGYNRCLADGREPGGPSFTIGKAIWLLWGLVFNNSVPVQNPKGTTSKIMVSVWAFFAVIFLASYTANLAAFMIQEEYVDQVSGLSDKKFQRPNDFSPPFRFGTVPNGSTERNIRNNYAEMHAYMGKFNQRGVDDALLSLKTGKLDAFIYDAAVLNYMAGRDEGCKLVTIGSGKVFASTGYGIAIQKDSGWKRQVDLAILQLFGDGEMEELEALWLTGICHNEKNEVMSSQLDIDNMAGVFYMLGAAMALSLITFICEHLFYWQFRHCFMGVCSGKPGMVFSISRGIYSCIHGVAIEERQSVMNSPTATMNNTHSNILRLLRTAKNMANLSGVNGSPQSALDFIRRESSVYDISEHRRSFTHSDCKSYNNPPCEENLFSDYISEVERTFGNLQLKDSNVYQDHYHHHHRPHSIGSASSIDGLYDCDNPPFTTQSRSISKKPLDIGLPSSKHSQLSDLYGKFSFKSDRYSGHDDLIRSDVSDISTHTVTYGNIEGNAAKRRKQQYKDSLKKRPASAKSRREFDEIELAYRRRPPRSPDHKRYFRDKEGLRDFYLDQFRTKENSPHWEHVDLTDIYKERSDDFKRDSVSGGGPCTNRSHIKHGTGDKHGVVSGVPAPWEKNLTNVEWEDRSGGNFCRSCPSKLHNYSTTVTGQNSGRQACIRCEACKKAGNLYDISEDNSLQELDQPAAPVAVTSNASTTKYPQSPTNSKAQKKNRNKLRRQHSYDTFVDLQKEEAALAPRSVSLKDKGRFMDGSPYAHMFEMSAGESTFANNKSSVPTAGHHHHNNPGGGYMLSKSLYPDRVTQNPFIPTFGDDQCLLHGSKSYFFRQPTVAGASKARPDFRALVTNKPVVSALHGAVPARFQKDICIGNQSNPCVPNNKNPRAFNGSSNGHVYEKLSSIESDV

| SMILES | IC50 [1] | IC50 [2] | IC50 (Binned Activity) | IC50 (NR2B NAM IC50) |
| --- | --- | --- | --- | --- |
| CC(C(O)c1ccc(O)cc1)N1C[C@@H]2C[C@@](O)(c3ccccc3)C[C@@H]2C1 (mixture of isomers) [Example 91, rac-2-(1-hydroxy-1-(4-hydroxyphenyl)propan-2-yl)-5-phenyloctahydrocyclo-penta[c]pyrrol-5-ol] | > 10 µM | ≥ 10 µM | – | – |
| Oc1ccc(C(O)CN2C[C@H]3CC(Cc4ccccc4)C[C@H]3C2)cc1 (mixture of isomers) [Example 300, rac-4-(2-((3aR,6aS)-5-benzylhexahydrocyclo-penta[c]pyrrol-2(1H)-yl)-1-hydroxyethyl) phenol] | < 0.1 µM | 0.0139 µM | – | – |
| CC(C(O)c1ccc(O)cc1)N1C[C@@H]2C[C@@](O)(CCc3ccccc3)C[C@@H]2C1 (mixture of isomers) [Example 320, rac-2-(1-hydroxy-1-(4-hydroxyphenyl)propan-2-yl)-5-phenethyl-octahydrocyclo-panta[c]pyrrol-5-ol] | – | 2.05 µM | – | – |
| Oc1ccc(C(O)CN2C[C@@H]3C[C@@](O)(Cc4ccc(F)cc4)C[C@@H]3C2)cc1 (mixture of isomers) [Example 135, rac-(3aR,5r,6aS)-5-(4-fluorobenzyl)-2-(2-hydroxy-2-(4-hy-droxyphenyl)ethyl)octa-hydrocyclopenta[c]pyrrol-5-ol] | – | 0.0271 µM | – | – |
| CC(C(=O)c1ccc(O)cc1)N1C[C@@H]2C[C@@](O)(c3ccc(F)cc3)C[C@@H]2C1 (mixture of isomers) [Example 92, rac-2-[5-(4-fluorophenyl)-5-hydroxy-octahydrocyclopenta[c]pyrrol-2-yl]-1-(4-hydroxyphenyl)propan-1-one] | > 10 µM | ≥ 10 µM | – | – |
| O=C(Nc1cccc(Cl)c1)N1C[C@@H]2C[C@@](O)(c3ccc(F)cc3)C[C@@H]2C1 [Example 39] | > 10 µM | ≥ 10 µM | – | – |
| CS(=O)(=O)Nc1ccc(C(O)CN2C[C@@H]3C[C@@](O)(Cc4ccccc4)C[C@@H]3C2)cc1 (mixture of isomers) [Example 150, rac-N-(4-(2-((3aR,5r,6aS)-5-benzyl-5-hydroxyhexahydrocyclo-penta[c]pyrrol-2(1H)-yl)-1-hydroxy-ethyl)phenyl)meth-anesulfonamide] | – | 0.047 µM | – | – |
| CO[C@@]1(Cc2ccccc2)C[C@H]2CN(CC(O)c3ccc(O)c(F)n3)C[C@H]2C1 (mixture of isomers) [Example 198, rac-6-(2-((3aR,5r,6aS)-5-benzyl-5-methoxyhexahydrocyclo-penta[c]pyrrol-2(1H)-yl)-1-hydroxyethyl)-2-fluoropyridin-3-ol] | – | 0.476 µM | – | – |
| O=c1ccc(C(O)CN2C[C@@H]3C[C@@](O)(Cc4ccccc4)C[C@@H]3C2)n[nH]1 (mixture of isomers) [Example 158, rac-6-(2-((3aR,5r,6aS)-5-benzyl-5-hydroxyhexahydrocyclo-penta[c]pyrrol-2(1H)-yl)-1-hydroxyethyl)pyridazin-3(2H)-one] | > 10 µM | ≥ 10 µM | – | – |
| C[C@@H](NC(=O)N1C[C@@H]2C[C@@](O)(c3ccccc3)C[C@@H]2C1)c1ccc(Cl)cc1 [Example 20, N-[(1R)-1-(4-chlorophenyl)ethyl]-5-hydroxy-5-phenyl-octahydrocyclopenta[c] pyrrole-2-carboxamide] | > 10 µM | – | – | – |
| Oc1c(F)cc(C(O)CN2C[C@@H]3C[C@@](O)(Cc4ccccc4)C[C@@H]3C2)cc1F (mixture of isomers) [Example 160, rac-(3aR,5r,6aS)-5-benzyl-2-(2-(3,5-difluoro-4-hydroxyphenyl)-2-hydroxyethyl)octahydro-cyclopenta[c]pyrrol-5-ol] | – | 0.0981 µM | – | – |
| COc1ccc(NC(=O)N2C[C@@H]3C[C@@](O)(c4cccc(OC)c4)C[C@@H]3C2)cc1 [Example 17, 5-hydroxy-5-(3-methoxyphenyl)-N-(4-methoxyphenyl)-octahydrocyclopenta[c] pyrrole-2-carboxamide] | > 10 µM | – | – | – |
| Oc1ccc(C(O)CN2C[C@@H]3C[C@@](O)(Cc4cccc(F)c4F)C[C@@H]3C2)nc1 (mixture of isomers) [Example 248, rac-(3aR,5r,6aS)-5-(2,3-difluorobenzyl)-2-(2-hydroxy-2-(5-hydroxypyridin-2-yl)ethyl)octahydrocyclo-penta[c]pyrrol-5-ol] | – | 0.0476 µM | – | – |
| COc1cccc([C@]2(O)C[C@H]3CN(CC(O)c4ccccc4)C[C@H]3C2)c1 (mixture of isomers) [Example 60, rac-2-(2-hydroxy-2-phenylethyl)-5-(3-methoxyphenyl)-octahydrocyclopenta[c] pyrrol-5-ol] | > 10 µM | ≥ 10 µM | – | – |
| COc1ccc(C(O)CN2C[C@@H]3C[C@@](O)(c4ccccc4)C[C@@H]3C2)cc1 (mixture of isomers) [Example 66, rac-2-[2-hydroxy-2-(4-methoxyphenyl)ethyl]-5-phenyl-octahydrocyclopenta[c] pyrrol-5-ol] | > 10 µM | ≥ 10 µM | – | – |
| CC(C(=O)c1ccc(O)cc1)N1C[C@H]2CC(CCc3ccccc3)C[C@H]2C1 (mixture of isomers) [Example 322, rac-1-(4-hydroxy-phenyl)2-[(5R)-5-(2-phenylethyl)-octahydrocyclopenta[c]pyrrol-2-yl]propan-1-one] | – | – | 0.1 to 1 µM | 0.533 µM |
| N#Cc1cccc(NC(=O)N2C[C@@H]3C[C@@](O)(c4ccc(F)cc4)C[C@@H]3C2)c1 [Example 40] | > 10 µM | – | – | – |
| COc1ccc(C[C@]2(O)C[C@H]3CN(CC(O)c4ccc(O)cc4)C[C@H]3C2)cc1 (mixture of isomers) [Example 189, rac-(3aR,5r,6aS)-2-(2-hydroxy-2-(4-hydroxyphenyl)ethyl)-5-(4-methoxy-benzyl)octahydro-cyclopenta[c]pyrrol-5-ol] | – | 0.0474 µM | – | – |
| O=C(Nc1cccc(C(F)(F)F)c1)N1C[C@@H]2C[C@@](O)(c3ccc(F)cc3)C[C@@H]2C1 [Example 38] | > 10 µM | ≥ 10 µM | – | – |
| Oc1ccc(C(O)CN2C[C@@H]3C[C@@](O)(Cc4ccccc4)C[C@@H]3C2)cn1 (mixture of isomers) [Example 181, rac-5-{2-[(3aR,5R,6aS)-5-benzyl-5-hydroxy-octahydrocyclopenta[c]pyrrol-2-yl]-1-hydroxyethyl}pyridin-2-ol] | > 10 µM | ≥ 10 µM | – | – |
| Oc1ccc(C(O)CN2C[C@@H]3C[C@@](O)(CC4CCCCC4)C[C@@H]3C2)cc1 (mixture of isomers) [Example 209, rac-(3aR,5R,6aS)-5-(cyclohexylmethyl)-2-[2-hydroxy-2-(4-hydroxyphenyl)ethyl]-octahydrocyclopenta[c] pyrrol-5-ol] | – | 0.41 µM | – | – |
| Oc1ccc(C(O)CN2C[C@@H]3C[C@@](O)(CC4CCCCC4)C[C@@H]3C2)nc1 (mixture of isomers) [Example 214, rac-6-{2-[(3aR,5R,6aS)-5-(cyclohexylmethyl)-5-hydroxy-octahydrocyclopenta[c]pyrrol-2-yl]-1-hydroxyethyl}pyridin-3-ol] | – | 2.63 µM | – | – |
| COc1cccc([C@]2(O)C[C@H]3CN(C(=O)Nc4ccc(Cl)c(C(F)(F)F)c4)C[C@H]3C2)c1 [Example 34, N-[4-chloro-3-(trifluoromethyl)phenyl]-5-hydroxy-5-(3-methoxyphenyl)-octahydrocyclopenta[c] pyrrole-2-carboxamide] | > 10 µM | – | – | – |
| Cc1ccc(NC(=O)N2C[C@@H]3C[C@@](O)(c4ccccc4)C[C@@H]3C2)c(C)c1 [Example 47] | > 10 µM | ≥ 10 µM | – | – |
| CC(C(=O)c1ccc(O)cc1)N1C[C@@H]2C[C@](F)(Cc3ccccc3)C[C@@H]2C1 (mixture of isomers) [Example 317, rac-2-((3aR,5s,6aS)-5-benzyl-5-fluoro-hexahydrocyclopen-ta[c]pyrrol-2(1H)-yl)-1-(4-hydroxyphenyl)propan-1-one] | – | 0.284 µM | – | – |

Reference: patent US10052306B2 (LUC THERAPEUTICS, INC., priority 2013, dated 2018)
